From ChEMBL document CHEMBL1127517 (J Med Chem, 1994)

What was measured:
Rattus norvegicus [1] = assay: Distribution of radio activity in tissues of unfasted male rats was measured at 120 min of time in liver after intravenous administration; type: ADME, organism-based; conditions: in vivo, 2 h
Rattus norvegicus [2] = assay: Distribution of radio activity in tissues of unfasted male rats was measured at 2 min of time in spleen after intravenous administration; type: ADME, organism-based; conditions: in vivo
Rattus norvegicus [3] = assay: Distribution of radio activity in tissues of unfasted male rats was measured as regional uptake at 30 min of time in cortex after intravenous administration; type: ADME, organism-based; conditions: in vivo, 0.5 h
Rattus norvegicus [4] = assay: Distribution of radio activity in tissues of unfasted male rats was measured at 30 min of time in muscle after intravenous administration; type: ADME, organism-based, Muscle tissue; conditions: in vivo, 0.5 h
Rattus norvegicus [5] = assay: Distribution of radio activity in tissues of unfasted male rats was measured at 30 min of time in spleen after intravenous administration; type: ADME, organism-based; conditions: in vivo, 0.5 h
Rattus norvegicus [6] = assay: Distribution of radio activity in tissues of unfasted male rats was measured at 120 min of time in spleen after intravenous administration; type: ADME, organism-based; conditions: in vivo, 2 h
Rattus norvegicus [7] = assay: Distribution of radio activity in tissues of unfasted male rats was measured at 60 min of time in muscle after intravenous administration; type: ADME, organism-based, Muscle tissue; conditions: in vivo, 1 h
Rattus norvegicus [8] = assay: Distribution of radio activity in tissues of unfasted male rats was measured as regional uptake at 30 min of time in hippocampus after intravenous administration; type: ADME, organism-based; conditions: in vivo, 0.5 h
Rattus norvegicus [9] = assay: Distribution of radio activity in tissues of unfasted male rats was measured as regional uptake at 120 min of time in striatum after intravenous administration; type: ADME, organism-based; conditions: in vivo, 2 h
Rattus norvegicus [10] = assay: Distribution of radio activity in tissues of unfasted male rats was measured at 2 min of time in brain after intravenous administration; type: ADME, organism-based; conditions: in vivo
Rattus norvegicus [11] = assay: Distribution of radio activity in tissues of unfasted male rats was measured as regional uptake at 30 min of time in striatum after intravenous administration; type: ADME, organism-based; conditions: in vivo, 0.5 h
Rattus norvegicus [12] = assay: Distribution of radio activity in tissues of unfasted male rats was measured at 30 min of time in blood after intravenous administration; type: ADME, organism-based; conditions: in vivo, 0.5 h
Rattus norvegicus [13] = assay: Distribution of radio activity in tissues of unfasted male rats was measured at 2 min of time in heart after intravenous administration; type: ADME, organism-based; conditions: in vivo
Rattus norvegicus [14] = assay: Distribution of radio activity in tissues of unfasted male rats was measured at 2 min of time in thyroid after intravenous administration; type: ADME, organism-based, Thyroid gland; conditions: in vivo
Rattus norvegicus [15] = assay: Distribution of radio activity in tissues of unfasted male rats was measured at 120 min of time in skin after intravenous administration; type: ADME, organism-based; conditions: in vivo, 2 h
Rattus norvegicus [16] = assay: Distribution of radio activity in tissues of unfasted male rats was measured at 2 min of time in blood after intravenous administration; type: ADME, organism-based; conditions: in vivo
Rattus norvegicus [17] = assay: Distribution of radio activity in tissues of unfasted male rats was measured as regional uptake at 30 min of time in cerebellum after intravenous administration; type: ADME, organism-based; conditions: in vivo, 0.5 h
Rattus norvegicus [18] = assay: Distribution of radio activity in tissues of unfasted male rats was measured as regional uptake at 2 min of time in cerebellum after intravenous administration; type: ADME, organism-based; conditions: in vivo
[19] = biological target: Sodium-dependent dopamine transporter (Rattus norvegicus, UniProt P23977); assay: Inhibitory constant towards reuptake of [125I]-12 from dopamine transporter in rat striatal membranes; type: cell membranes, Membrane
Rattus norvegicus [20] = assay: Distribution of radio activity in tissues of unfasted male rats was measured at 120 min of time in lung after intravenous administration.; type: ADME, organism-based; conditions: in vivo, 2 h
Rattus norvegicus [21] = assay: Distribution of radio activity in tissues of unfasted male rats was measured at 30 min of time in lung after intravenous administration; type: ADME, organism-based; conditions: in vivo, 0.5 h
Rattus norvegicus [22] = assay: Distribution of radio activity in tissues of unfasted male rats was measured at 60 min of time in lung after intravenous administration; type: ADME, organism-based; conditions: in vivo, 1 h
Rattus norvegicus [23] = assay: Distribution of radio activity in tissues of unfasted male rats was measured as regional uptake at 120 min of time in ST/CB after intravenous administration; type: ADME, organism-based; conditions: in vivo, 2 h
Rattus norvegicus [24] = assay: Distribution of radio activity in tissues of unfasted male rats was measured at 30 min of time in heart after intravenous administration; type: ADME, organism-based; conditions: in vivo, 0.5 h
Rattus norvegicus [25] = assay: Distribution of radio activity in tissues of unfasted male rats was measured as regional uptake at 30 min of time in ST/CB after intravenous administration; type: ADME, organism-based; conditions: in vivo, 0.5 h
Rattus norvegicus [26] = assay: Distribution of radio activity in tissues of unfasted male rats was measured at 120 min of time in thyroid after intravenous administration; type: ADME, organism-based, Thyroid gland; conditions: in vivo, 2 h
Rattus norvegicus [27] = assay: Distribution of radio activity in tissues of unfasted male rats was measured at 60 min of time in kidney after intravenous administration; type: ADME, organism-based; conditions: in vivo, 1 h
Rattus norvegicus [28] = assay: Distribution of radio activity in tissues of unfasted male rats was measured alungblood after intravenous administration; type: ADME, organism-based, Lung; conditions: in vivo
Rattus norvegicus [29] = assay: Distribution of radio activity in tissues of unfasted male rats was measured at 120 min of time in muscle after intravenous administration; type: ADME, organism-based, Muscle tissue; conditions: in vivo, 2 h
Rattus norvegicus [30] = assay: Distribution of radio activity in tissues of unfasted male rats was measured at 60 min of time in heart after intravenous administration; type: ADME, organism-based; conditions: in vivo, 1 h
Rattus norvegicus [31] = assay: Distribution of radio activity in tissues of unfasted male rats was measured as regional uptake at 60 min of time in striatum after intravenous administration; type: ADME, organism-based; conditions: in vivo, 1 h

Chain of Sodium-dependent dopamine transporter (P23977 whole entry): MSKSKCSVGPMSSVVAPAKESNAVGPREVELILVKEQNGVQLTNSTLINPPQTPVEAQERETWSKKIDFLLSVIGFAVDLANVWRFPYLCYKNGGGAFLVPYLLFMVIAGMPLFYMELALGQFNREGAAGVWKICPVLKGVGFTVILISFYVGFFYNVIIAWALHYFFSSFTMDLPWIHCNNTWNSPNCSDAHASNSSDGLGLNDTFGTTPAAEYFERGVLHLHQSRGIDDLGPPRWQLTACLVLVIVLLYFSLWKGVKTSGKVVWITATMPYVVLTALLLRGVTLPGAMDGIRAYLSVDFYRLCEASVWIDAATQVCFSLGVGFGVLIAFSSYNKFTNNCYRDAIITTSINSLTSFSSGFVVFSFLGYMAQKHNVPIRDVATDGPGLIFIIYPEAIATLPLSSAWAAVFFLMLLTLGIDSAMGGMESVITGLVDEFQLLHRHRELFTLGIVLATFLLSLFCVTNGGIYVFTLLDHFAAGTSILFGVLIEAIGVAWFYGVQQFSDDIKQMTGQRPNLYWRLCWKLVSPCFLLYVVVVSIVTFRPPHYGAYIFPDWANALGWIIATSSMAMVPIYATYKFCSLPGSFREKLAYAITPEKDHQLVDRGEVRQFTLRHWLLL

COC(=O)C1C(c2ccc(Cl)cc2)CC2CCC1N2C/C=C\I (stereo unspecified)
Injected dose/organ (Rattus norvegicus [1]): 1.28%
Injected dose/organ (Rattus norvegicus [2]): 0.4%
Dose/g (Rattus norvegicus [3]): 0.11%
Injected dose/organ (Rattus norvegicus [4]): 17.43%
Injected dose/organ (Rattus norvegicus [5]): 0.19%
Injected dose/organ (Rattus norvegicus [6]): 0.09%
Injected dose/organ (Rattus norvegicus [7]): 12.22%
Dose/g (Rattus norvegicus [8]): 0.12%
Dose/g (Rattus norvegicus [9]): 0.05%
Injected dose/organ (Rattus norvegicus [10]): 1.27%
Dose/g (Rattus norvegicus [11]): 0.33%
Injected dose/organ (Rattus norvegicus [12]): 8%
Injected dose/organ (Rattus norvegicus [13]): 0.85%
Injected dose/organ (Rattus norvegicus [14]): 0.08%
Injected dose/organ (Rattus norvegicus [15]): 19.3%
Injected dose/organ (Rattus norvegicus [16]): 5.01%
Dose/g (Rattus norvegicus [17]): 0.19%
Dose/g (Rattus norvegicus [18]): 0.82%
Ki [19]: 1.27 nM
Injected dose/organ (Rattus norvegicus [20]): 0.4%
Injected dose/organ (Rattus norvegicus [21]): 0.78%
Injected dose/organ (Rattus norvegicus [22]): 0.5%
Dose/g (Rattus norvegicus [23]): 1.9%
Injected dose/organ (Rattus norvegicus [24]): 0.22%
Dose/g (Rattus norvegicus [25]): 3%
Injected dose/organ (Rattus norvegicus [26]): 1.29%
Injected dose/organ (Rattus norvegicus [27]): 0.56%
Injected dose/organ (Rattus norvegicus [28]): 1.23%
Injected dose/organ (Rattus norvegicus [29]): 9.22%
Injected dose/organ (Rattus norvegicus [30]): 0.16%
Dose/g (Rattus norvegicus [31]): 0.11%
